The values below come from paper PMC7051184, “C9orf72 arginine-rich dipeptide repeat proteins disrupt karyopherin-mediated nuclear import” (eLife, 2020).

Where a SMILES comes first, the peptide text is derived from it.

Test [1] deals with passive nuclear influx of GFP. Briefly: Passive import assay, GFP, permeabilized HeLa. The test is classed as cell-based, human. To be noted: preincubation 30–60 min, with energy and lysate; imaged 5 min.
In another test the target is T1, importin β (KPNB1) (Homo sapiens, UniProt Q14974).
T1 construct: pET30a 6His-S-Importin β(1-876); 6His (N); S-tag (N); made in house; host or cells: E. coli BL21(DE3)
Briefly: Rango FRET detection of importin β-Rango dissociation. The test is classed as binding. The following applies: DPR 10-mers added to importin β-bound Rango. The protocol:
Full-length human importin β was expressed from pET30a-WT importin β (pKW485; [Chi et al., 1997]) at the Protein Expression Laboratory (PEL, National Cancer Institute, Frederick, MD). The transformed BL21DE3 cells were grown at 37°C in an 80L Bioflow 500 bioreactor (New Brunswick Scientific, Edison, NJ) until OD600nm = 0.6, cooled to 22°C and the expression was induced with 0.3 mM IPTG. After 12 hr induction, cells were harvested with the CARR continuous flow centrifuge and lysed in PBS with 10 mM imidazole and 5 mM TCEP with a 110EH Microfluidizer (Microfluidics, Westwood, MA) using 2 passes at 10,000 PSI under chilled conditions. The lysates were flash-frozen in liquid nitrogen and stored at −80°C. After thawing, the lysates were clarified and incubated with HIS-Select HF Nickel Affinity beads. The beads were washed with 10 mM imidazole/PBS and the protein eluted with 200 mM imidazole/PBS before dialysis in XB. The purified importin β was combined with a freshly thawed aliquot of Rango2-α1 (pK188) at 2.5:1 molar ratio ratio (12.5 µM importin β, 5 µM Rango) and supplemented with 3% glycerol. Measurement of Rango fluorescence emission in a spectrometer (see below) was used to verify the FRET-off state of the Rango/importin β mixture before freezing.
The expression of zz-RCC1 was induced at OD600nm = 0.4, followed by incubation at 22°C for 4 hr. The cells were washed with PBS, 10 mM Imidazole, 1 mM MgCl2, 5 mM TCEP, 0.2 mM AEBSF, pH 8.0, and lysed by ice-cold microfluidizer. The clarified lysates were used to isolate the zz-RCC1 proteins on HIS-Select HF Nickel Affinity beads, as described above. Proteins eluted with 0.2M imidazole/PBS were dialyzed in PBS before storage. The zz-RanQ69L (pKW1234; pK1097) was expressed from BL21DE3 cells at PEL in an 80L bioreactor, using conditions described for importin β above, except that expression was induced with 0.3 mM IPTG at 37°C for 3 hr, and lysis was performed in PBS with 10 mM Imidazole, 5 mM TCEP, 2 mM MgCl2, and 1 mM GTP. The lysates were clarified and bound to HIS-Select HF Nickel Affinity beads (Millipore Sigma). […]
FRET assays for DPR-induced dissociation of the importin β-Rango complex were performed using a mix of 5 µM Rango-2/α1 (pK188) and 12.5 µM importin β (pKW485) prepared as described above. […] Peak emissions were recorded at 480 nm (donor) and 535 nm (acceptor) in all samples, and background emission subtracted at the same wavelengths in the blank. The FRET signal was calculated as the ratio of background-subtracted acceptor/donor emissions. The signal detected in the untreated sample (20 nM Rango and 50 nM importin β-only, the lowest FRET), was then subtracted from the resulting values. […]

T1 sequence (Q14974 whole entry): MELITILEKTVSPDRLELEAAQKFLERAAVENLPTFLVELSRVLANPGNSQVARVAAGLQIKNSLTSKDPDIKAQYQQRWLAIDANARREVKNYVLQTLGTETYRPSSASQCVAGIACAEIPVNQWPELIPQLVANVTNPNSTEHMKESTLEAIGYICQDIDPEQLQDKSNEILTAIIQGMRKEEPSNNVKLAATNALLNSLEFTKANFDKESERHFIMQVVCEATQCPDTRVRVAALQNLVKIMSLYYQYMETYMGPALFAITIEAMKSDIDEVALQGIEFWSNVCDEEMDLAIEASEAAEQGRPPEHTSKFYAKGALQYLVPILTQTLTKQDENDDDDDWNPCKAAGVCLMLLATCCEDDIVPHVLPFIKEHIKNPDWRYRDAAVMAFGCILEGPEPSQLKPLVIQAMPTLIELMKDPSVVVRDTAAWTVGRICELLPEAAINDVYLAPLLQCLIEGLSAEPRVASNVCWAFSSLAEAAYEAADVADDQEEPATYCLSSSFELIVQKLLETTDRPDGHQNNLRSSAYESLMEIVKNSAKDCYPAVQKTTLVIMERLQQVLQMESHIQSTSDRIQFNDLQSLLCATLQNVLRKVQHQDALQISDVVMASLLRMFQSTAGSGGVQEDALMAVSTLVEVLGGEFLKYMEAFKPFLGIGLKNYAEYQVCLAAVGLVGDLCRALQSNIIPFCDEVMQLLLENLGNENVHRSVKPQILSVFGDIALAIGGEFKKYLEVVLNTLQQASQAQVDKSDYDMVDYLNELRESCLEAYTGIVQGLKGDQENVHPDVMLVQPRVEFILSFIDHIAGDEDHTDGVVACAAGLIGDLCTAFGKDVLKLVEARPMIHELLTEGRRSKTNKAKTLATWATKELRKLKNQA

On to “GPGPGPGPGPGPGPGPGPGPKC [GP10, Synthetic 10-mer GP dipeptide repeat with C-terminal lysine and cysteine]”, for which the “Effect on passive nuclear influx of GFP” value in test [1] was “not observed”. Moreover, the “Effect on Rango FRET” value on importin β (KPNB1) is “did not affect Rango FRET”.
As to `N=C(N)NCCC[C@H](NC(=O)[C@@H]1CCCN1C(=O)[C@H](CCCNC(=N)N)NC(=O)[C@@H]1CCCN1C(=O)[C@H](CCCNC(=N)N)NC(=O)[C@@H]1CCCN1C(=O)[C@H](CCCNC(=N)N)NC(=O)[C@@H]1CCCN1C(=O)[C@H](CCCNC(=N)N)NC(=O)[C@@H]1CCCN1C(=O)[C@H](CCCNC(=N)N)NC(=O)[C@@H]1CCCN1C(=O)[C@H](CCCNC(=N)N)NC(=O)[C@@H]1CCCN1C(=O)[C@H](CCCNC(=N)N)NC(=O)[C@@H]1CCCN1C(=O)[C@H](CCCNC(=N)N)NC(=O)[C@@H]1CCCN1C(=O)[C@H](CCCNC(=N)N)NC(=O)[C@@H]1CCCN1)C(=O)O` [PR10] (H-PRPRPRPRPRPRPRPRPRPR-OH; N-terminus and C-terminus assumed), the “Effect on Rango FRET” value on importin β (KPNB1) is “dose-dependent increase in FRET”.
For the molecule “PA10: Synthetic 10-mer PA dipeptide repeat with C-terminal lysine and cysteine (PAPAPAPAPAPAPAPAPAPAKC)”, the “Effect on passive nuclear influx of GFP” value in test [1] is given as “not observed”. In the test with importin β (KPNB1), the “Effect on Rango FRET” value was “did not affect Rango FRET”.
Take “GA10: Synthetic 10-mer GA dipeptide repeat with C-terminal lysine and cysteine (GAGAGAGAGAGAGAGAGAGAKC)”: the “Effect on passive nuclear influx of GFP” value in test [1] is “not observed”. The “Effect on Rango FRET” value in the test with importin β (KPNB1) was “did not affect Rango FRET”.
